Assay results reported in patent publication US8697683B2, “Azetidinyl diamides as monoacylglycerol lipase inhibitors” (Janssen Pharmaceutica, NV, priority 2009, dated 2014).
Positions count from the first letter of the chain named. Read-outs that look alike come from different tables or passages of the source.

Columns and labels:
[1] = target: T1, purified wild type MGL (wt-MGLL 6H-11-313) (Homo sapiens, UniProt Q99685)
T1 sequence (Q99685 1-303): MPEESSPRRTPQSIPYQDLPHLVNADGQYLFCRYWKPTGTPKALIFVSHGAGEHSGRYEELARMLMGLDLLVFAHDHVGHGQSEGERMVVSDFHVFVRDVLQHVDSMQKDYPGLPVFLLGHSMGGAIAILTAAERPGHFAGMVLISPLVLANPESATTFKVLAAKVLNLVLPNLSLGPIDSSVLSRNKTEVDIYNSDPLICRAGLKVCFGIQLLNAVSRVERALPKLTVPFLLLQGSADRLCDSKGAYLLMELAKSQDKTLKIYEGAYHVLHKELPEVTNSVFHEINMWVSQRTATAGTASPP

mutant MGL = target: T2, mutant MGL (Homo sapiens, UniProt Q99685, L169S/L176S); test: MGL ThermoFluor Assay-Mutant
T2 sequence (Q99685 1-303 L169S/L176S): T1 sequence (Q99685 1-303) with L169S, L176S
Procedure: The ThermoFluor (TF) assay is a 384-well plate-based binding assay that measures thermal stability of proteins^1,2. […] TF dye used in all experiments was 1,8-ANS (Invitrogen: A-47). Final TF assay conditions used for MGL studies were 0.07 mg/ml of mutant MGL, 100 μM ANS, 200 mM NaCl, 0.001% Tween-20 in 50 mM PIPES (pH=7.0).
Screening compound plates contained 100% DMSO compound solutions at a single concentration. […] Columns 12 and 24 were used as DMSO reference and contained no compound. […] Following compound dispension, protein and dye solutions were added to achieve the final assay volume of 3 μL.
Bar-coded assay plates were robotically loaded onto a thermostatically controlled PCR-type thermal block and then heated from 40 to 90° C. degrees at a ramp-rate of 1° C./min for all experiments. Fluorescence was measured by continuous illumination with UV light (Hamamatsu LC6), supplied via fiber optics and filtered through a band-pass filter (380-400 nm; >60D cutoff). Fluorescence emission of the entire 384-well plate was detected by measuring light intensity using a CCD camera (Sensys, Roper Scientific) filtered to detect 500±25 nm, resulting in simultaneous and independent readings of all 384 wells. A single image with 20-sec exposure time was collected at each temperature, and the sum of the pixel intensity in a given area of the assay plate was recorded vs temperature and fit to standard equations to yield the Tm^1. • 1.
For some experiments, quantitative NMR spectroscopy (qNMR) was used to measure concentration of the initial 100% DMSO compound solutions and, using the same fitting method, qKd values were determined

MGL = target: T3, MGL (Rattus norvegicus, UniProt Q8R431); test: 2-AG Accumulation Assay (rat brain homogenate); type: biochemical; conditions: compound 1 μM, percent of vehicle 2-AG accumulation
T3 construct: one g rat brain was homogenized
T3 sequence (Q8R431 1-303): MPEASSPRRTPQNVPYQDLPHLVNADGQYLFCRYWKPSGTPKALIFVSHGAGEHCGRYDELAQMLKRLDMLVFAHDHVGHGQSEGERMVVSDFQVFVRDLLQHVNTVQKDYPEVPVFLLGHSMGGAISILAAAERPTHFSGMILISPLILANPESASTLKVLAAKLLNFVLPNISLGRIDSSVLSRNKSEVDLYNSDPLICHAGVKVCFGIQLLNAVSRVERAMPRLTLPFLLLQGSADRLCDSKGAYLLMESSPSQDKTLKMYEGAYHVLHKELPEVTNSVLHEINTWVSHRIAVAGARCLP

[2] = system: CFA-induced thermal hypersensitivity; test: CFA-Induced Paw Radiant Heat Hypersensitivity; type: in vivo; conditions: rat, 30 mg/kg p.o., HPβCD vehicle; for Method 1: peak % reversal: group mean values, maximum at any time point up to 180 or 300 min
Procedure: A radiant thermal stimulus (beam of light) was then focused through the glass onto the plantar surface of each hind paw in turn. […] An initial (baseline) response latency to the thermal stimulus was recorded for each animal prior to the injection of complete Freund's adjuvant (CFA). 24 h following intraplantar CFA injection, the response latency of the animal to the thermal stimulus was then re-evaluated and compared to the animal's baseline response time. […] Immediately following the post-CFA latency assessment, the indicated test compound or vehicle was administered orally. […] More specifically: For all compounds, the % R of hypersensitivity was calculated using the mean value for groups of animals at each time point according to the following formula: % reversal=[(group treatment response−group CFA response)/(group baseline response−group CFA response)]×100 Results are given for the maximum % reversal observed for each compound at any time point tested. For some compounds, the % R of hypersensitivity was calculated separately for each animal according to the following formula: % reversal=[(individual treatment response−individual CFA response)/(individual baseline response−individual CFA response)]×100. Results are given as a mean of the maximum % reversal values calculated for each individual animal.

tactile allodynia = test: Spinal Nerve Ligation (SNL) Model of Neuropathic Pain-Tactile Allodynia Test; type: in vivo, rat; conditions: L5 SNL rats, 30 mg/kg p.o., HPβCD vehicle, last time point 4 h
Excerpt: For lumbar 5 (L5) spinal nerve ligation (SNL) studies, anesthesia was induced and maintained on isoflurane inhalation. Fur was clipped over the dorsal pelvic area, and a 2-cm skin incision was made just left of midline over the dorsal aspect of the L4-S2 spinal segments, followed by separation of the paraspinal muscles from spinous processes. The transverse process of L6 was then carefully removed, and the L5 spinal nerve was identified. The left L5 spinal nerve was then ligated tightly with 6-0 silk thread, the muscle was sutured with 4-0 vicryl, and the skin was closed with wound clips. Following surgery, s.c. saline (5 mL) was administered. Behavioral testing was performed four weeks post-ligation. Following baseline von Frey determinations to verify the presence of mechanical allodynia, L5 SNL rats were orally administered the indicated vehicle or drug. […] which the paw ipsilateral to the nerve ligation was withdrawn from the application of a series of calibrated von Frey filaments (0.4, 0.6, 1.0, 2.0, 4, 6, 8 and 15 g; Stoelting; Wood Dale, Ill.). Beginning at an intermediate stiffness (2.0 g), filaments were applied to the mid-plantar hind paw for approximately 5 seconds. to determine the response threshold, a brisk paw withdrawal led to the presentation of the next lighter stimulus, whereas a lack of a withdrawal response led to the presentation of the next stronger stimulus. A total of four responses after the first threshold detection were collected. The 50% withdrawal thresholds were interpolated by the method of Dixon, Efficient analysis of experimental observations. Annu. Rev. Pharmacol. […] Neurosci. […] Threshold data from von Frey filament testing were reported as withdrawal threshold in grams. Data were normalized and results are presented as % MPE (maximum possible effect) of the drug calculated according to the following formula: [formula]

[3] = read-out: MGL wild type inh IC50, substrate 4MU-B 10 μM, enzyme 5 nM, 37° C.
[4] = read-out: MGL mutant ThermoFluor qKd (μM) (using qNMR conc.), compound concentration measured by quantitative NMR (qNMR)
[5] = read-out: MGL wild type inh IC50, substrate 4MU-B 10 μM, 37° C.
[6] = read-out: MGL mutant ThermoFluor Kd, ThermoFluor thermal stability binding assay
[7] = read-out: MGL mutant ThermoFluor qKd (μM) (using qNMR conc.), ThermoFluor, compound concentration measured by qNMR
[8] = read-out: MGL wild type inh IC50, 4MU-B substrate 10 μM, 37° C.
[9] = read-out: MGL mutant ThermoFluor Kd, 0.07 mg/ml, fit of concentration-response of Tm

## O=C(c1cn2cc(Cl)cc(Br)c2n1)N1CC(N2CCN(C(=O)c3nccs3)CC2)C1 [Cpd 1452]
[1]; [3]
  IC50: > 16.7 µM
Mutant MGL; [4]
  Kd: 5.42 µM

## 5-[2-(4-Chlorophenyl)-1-methyl-vinyl]-1-(2,4-dichloro-phenyl)-4-methyl-1H-pyrazole-3-carboxylic acid [Cpd 1010]
MGL
  Rat Brain 2AG % VehCntrl (%) @1 μM: 1953%
[1]; [5]
  IC50: < 0.005 µM
[2]
  Method 1: peak % reversal: 23.4%
Mutant MGL; [6]
  Kd: 0.017 µM
Mutant MGL; [7]
  Kd: 0.04 µM

## O=C(c1nccs1)N1CCN(C2CN(C(=O)c3cccc4nc(-c5ccccc5)[nH]c34)C2)CC1 [Cpd 1255]
MGL
  Rat Brain 2AG % VehCntrl (%) @1 μM: 147%
[1]; [8]
  IC50: 0.769 µM
Mutant MGL; [9]
  Kd: 0.048 µM

## O=C(c1ccccc1)N1CCN(C2CN(C(=O)c3cc4cc(Br)ccc4o3)C2)CC1 [Cpd 1492]
[1]; [3]
  IC50: > 16.7 µM
Mutant MGL; [9]
  Kd: 18.8 µM

## O=C(c1ccccc1)N1CC(N2CCN(C(=O)c3cc4cc(Cl)ccc4o3)CC2)C1 [Cpd 524]
[1]; [5]
  IC50: 4.37 µM
Mutant MGL; [6]
  Kd: 1.67 µM

## O=C(c1ccc(SCc2cccc(C(F)(F)F)c2)cc1)N1CC(N2CCN(C(=O)c3cscn3)CC2)C1 [Cpd 975]
[1]; [8]
  IC50: 0.162 µM
Mutant MGL; [6]
  Kd: 2 µM

## O=C(c1nccs1)N1CCN(C2CN(C(=O)c3c[nH]nc3-c3ccccc3)C2)CC1 [Cpd 1475]
[1]; [3]
  IC50: > 16.7 µM
Mutant MGL; [9]
  Kd: > 31.2 µM

## O=C(c1cc2cc(Br)ccc2o1)N1CC(N2CCN(C(=O)c3nccs3)CC2)C1 [Cpd 812]
[1]; [3]
  IC50: 2.19 µM
Mutant MGL; [9]
  Kd: 0.644 µM

## Cc1sc(C(=O)N2CC(N3CCN(C(=O)c4nccs4)CC3)C2)cc1Br [Cpd 745]
[1]; [3]
  IC50: 0.342 µM
Mutant MGL; [4]
  Kd: 0.283 µM

## O=C(c1ccc(OCc2cccc(Br)n2)cc1)N1CC(N2CCN(C(=O)C(F)(F)F)CC2)C1 [Cpd 984]
[1]; [8]
  IC50: 2.5 µM
Mutant MGL; [7]
  Kd: 1.43 µM

## COc1ccc(-c2cccc(C(=O)N3CC(N4CCN(C(=O)c5cscn5)CC4)C3)c2)cc1 [Cpd 1250]
[1]; [5]
  IC50: 0.638 µM
Mutant MGL; [6]
  Kd: 2 µM

## O=C(c1cscn1)N1CCN(C2CN(C(=O)c3sc4cc(C(F)(F)F)ccc4c3Cl)C2)CC1 [Cpd 335, 1-(1-{[3-Chloro-6-(trifluoromethyl)-1-benzothiophen-2-yl]carbonyl}azetidin-3-yl)-4-(1,3-thiazol-4-ylcarbonyl)piperazine]
Tactile allodynia
  peak % MPE: 50.1%

## O=C(c1ccc(Oc2cccc(Cl)c2)nc1)N1CC(N2CCN(C(=O)c3cscn3)CC2)C1 [Cpd 803]
[1]; [5]
  IC50: 1.87 µM
Mutant MGL; [6]
  Kd: 2.13 µM

## COc1cncc(Oc2ccc(C(=O)N3CC(N4CCN(C(=O)c5ccccc5)CC4)C3)cc2)c1 [Cpd 533]
Mutant MGL; [6]
  Kd: 10 µM

## O=C(c1nc2cc(-c3ccc(OC(F)(F)F)cc3)ccc2[nH]1)N1CC(N2CCN(C(=O)c3nccs3)CC2)C1 [Cpd 1303]
[1]; [8]
  IC50: 5.11 µM
Mutant MGL; [4]
  Kd: 7.12 µM

## O=C(c1ccccc1)N1CCN(C2CN(C(=O)c3ccc4c(ccn4-c4ccccc4)c3F)C2)CC1 [Cpd 632]
[1]; [5]
  IC50: 0.281 µM
Mutant MGL; [7]
  Kd: 0.037 µM

## Cc1c(C(=O)N2CCN(C3CN(C(=O)c4nccs4)C3)CC2)n(C)c2ccc(Cl)cc12 [Cpd 762]
[1]; [5]
  IC50: 0.632 µM
Mutant MGL; [7]
  Kd: 1 µM

## O=C(c1ccc(-c2ccccc2)cc1)N1CC(N2CCN(C(=O)c3ccccc3)CC23CC3)C1 [Cpd 1499]
[1]; [3]
  IC50: > 16.7 µM

## O=C(c1ccc(-c2ccc(Cl)cc2)[nH]1)N1CC(N2CCN(C(=O)c3nccs3)CC2)C1 [Cpd 1307]
[1]; [3]
  IC50: 8.78 µM
Mutant MGL; [6]
  Kd: 4.21 µM

## O=C(c1nccs1)N1CCN(C2CN(C(=O)c3cccc4c3CN(c3ccccc3)CC4)C2)CC1 [Cpd 805]
[1]; [8]
  IC50: 2 µM
Mutant MGL; [9]
  Kd: 6.41 µM

## O=C(c1nccs1)N1CCN(C2CN(C(=O)c3nn(-c4ccc(Cl)cc4Cl)c4c3CCCC4)C2)CC1 [Cpd 1267]
[1]; [5]
  IC50: 1.12 µM
Mutant MGL; [7]
  Kd: 0.741 µM

## Cn1nccc1-c1ccc2cc(C(=O)N3CC(N4CCN(C(=O)c5nccs5)CC4)C3)[nH]c2c1 [Cpd 1241]
[1]; [8]
  IC50: 0.46 µM
Mutant MGL; [4]
  Kd: 0.638 µM

## O=C(c1ccc[nH]1)N1CCN(C2CN(C(=O)c3nn(-c4ccc(Cl)cc4Cl)c4c3CCCC4)C2)CC1 [Cpd 1309]
[1]; [5]
  IC50: 9.36 µM
Mutant MGL; [7]
  Kd: 6.54 µM

## O=C(c1ccccc1)N1CCN(C2CN(C(=O)c3ccc(Oc4cccc(F)n4)cc3)C2)CC1 [Cpd 522]
[1]; [8]
  IC50: 2.68 µM
Mutant MGL; [6]
  Kd: 4.71 µM

## O=C(c1ccc2c(ccn2-c2ncccn2)c1)N1CC(N2CCN(C(=O)c3nccs3)CC2)C1 [Cpd 1174, 1-Pyrimidin-2-yl-5-({3-[4-(1,3-thiazol-2-ylcarbonyl)piperazin-1-yl]azetidin-1-yl}carbonyl)-1H-indole]
MGL
  Rat Brain 2AG % VehCntrl (%) @1 μM: 1021%

## Cc1cc2nc(C(=O)N3CC(N4CCN(C(=O)c5nccs5)CC4)C3)cn2cc1Br [Cpd 852]
[1]; [3]
  IC50: 8.08 µM
Mutant MGL; [7]
  Kd: 1.98 µM

## O=C(c1ccccc1)N1CCN(C2CN(C(=O)c3ccc4c(c3)c(F)cn4-c3ccccc3)C2)CC1 [Cpd 589]
[1]; [5]
  IC50: 0.146 µM

## O=C(c1ccc(-c2cccc(C(F)(F)F)c2)c(Cl)c1)N1CC(N2CCN(C(=O)c3cscn3)CC2)C1 [Cpd 1102]
MGL
  Rat Brain 2AG % VehCntrl (%) @1 μM: 878%
[2]
  Method 1: peak % reversal: 38%
[2]; mean of individual animal maximum values, up to 180 or 300 min
  Method 2: peak % reversal: 45.3%
Mutant MGL; [9]
  Kd: 0.006 µM

## O=C(c1ccc2nc(-c3ccccc3)sc2c1)N1CC(N2CCN(C(=O)c3nccs3)CC2)C1 [Cpd 1125, 2-Phenyl-6-({3-[4-(1,3-thiazol-2-ylcarbonyl)piperazin-1-yl]azetidin-1-yl}carbonyl)-1,3-benzothiazole]
MGL
  Rat Brain 2AG % VehCntrl (%) @1 μM: 1228%
